According to paper PMC4113750 (Toxins, 2014):
Like-named read-outs stand apart in the source and are kept apart here.

Key:
Type in all cases: cell-based
[1] = biological target: T1, hNaV1.3 (Homo sapiens, UniProt Q9NY46); assay: Whole-cell patch-clamp inhibition of hNaV1.3 in HEK 293 cells; conditions: 100 nM toxin, approximate
T1 construct: expressed in transfected cells; host or cells: HEK 293 cells, transient transfection

[2] = biological target: T2, hNaV1.5 (Homo sapiens, UniProt Q14524); assay: Whole-cell patch-clamp inhibition of hNaV1.5 in HEK 293 cells
T2 construct: expressed in transfected cells; host or cells: HEK 293 cells, transient transfection
T2 sequence (Q14524 whole entry): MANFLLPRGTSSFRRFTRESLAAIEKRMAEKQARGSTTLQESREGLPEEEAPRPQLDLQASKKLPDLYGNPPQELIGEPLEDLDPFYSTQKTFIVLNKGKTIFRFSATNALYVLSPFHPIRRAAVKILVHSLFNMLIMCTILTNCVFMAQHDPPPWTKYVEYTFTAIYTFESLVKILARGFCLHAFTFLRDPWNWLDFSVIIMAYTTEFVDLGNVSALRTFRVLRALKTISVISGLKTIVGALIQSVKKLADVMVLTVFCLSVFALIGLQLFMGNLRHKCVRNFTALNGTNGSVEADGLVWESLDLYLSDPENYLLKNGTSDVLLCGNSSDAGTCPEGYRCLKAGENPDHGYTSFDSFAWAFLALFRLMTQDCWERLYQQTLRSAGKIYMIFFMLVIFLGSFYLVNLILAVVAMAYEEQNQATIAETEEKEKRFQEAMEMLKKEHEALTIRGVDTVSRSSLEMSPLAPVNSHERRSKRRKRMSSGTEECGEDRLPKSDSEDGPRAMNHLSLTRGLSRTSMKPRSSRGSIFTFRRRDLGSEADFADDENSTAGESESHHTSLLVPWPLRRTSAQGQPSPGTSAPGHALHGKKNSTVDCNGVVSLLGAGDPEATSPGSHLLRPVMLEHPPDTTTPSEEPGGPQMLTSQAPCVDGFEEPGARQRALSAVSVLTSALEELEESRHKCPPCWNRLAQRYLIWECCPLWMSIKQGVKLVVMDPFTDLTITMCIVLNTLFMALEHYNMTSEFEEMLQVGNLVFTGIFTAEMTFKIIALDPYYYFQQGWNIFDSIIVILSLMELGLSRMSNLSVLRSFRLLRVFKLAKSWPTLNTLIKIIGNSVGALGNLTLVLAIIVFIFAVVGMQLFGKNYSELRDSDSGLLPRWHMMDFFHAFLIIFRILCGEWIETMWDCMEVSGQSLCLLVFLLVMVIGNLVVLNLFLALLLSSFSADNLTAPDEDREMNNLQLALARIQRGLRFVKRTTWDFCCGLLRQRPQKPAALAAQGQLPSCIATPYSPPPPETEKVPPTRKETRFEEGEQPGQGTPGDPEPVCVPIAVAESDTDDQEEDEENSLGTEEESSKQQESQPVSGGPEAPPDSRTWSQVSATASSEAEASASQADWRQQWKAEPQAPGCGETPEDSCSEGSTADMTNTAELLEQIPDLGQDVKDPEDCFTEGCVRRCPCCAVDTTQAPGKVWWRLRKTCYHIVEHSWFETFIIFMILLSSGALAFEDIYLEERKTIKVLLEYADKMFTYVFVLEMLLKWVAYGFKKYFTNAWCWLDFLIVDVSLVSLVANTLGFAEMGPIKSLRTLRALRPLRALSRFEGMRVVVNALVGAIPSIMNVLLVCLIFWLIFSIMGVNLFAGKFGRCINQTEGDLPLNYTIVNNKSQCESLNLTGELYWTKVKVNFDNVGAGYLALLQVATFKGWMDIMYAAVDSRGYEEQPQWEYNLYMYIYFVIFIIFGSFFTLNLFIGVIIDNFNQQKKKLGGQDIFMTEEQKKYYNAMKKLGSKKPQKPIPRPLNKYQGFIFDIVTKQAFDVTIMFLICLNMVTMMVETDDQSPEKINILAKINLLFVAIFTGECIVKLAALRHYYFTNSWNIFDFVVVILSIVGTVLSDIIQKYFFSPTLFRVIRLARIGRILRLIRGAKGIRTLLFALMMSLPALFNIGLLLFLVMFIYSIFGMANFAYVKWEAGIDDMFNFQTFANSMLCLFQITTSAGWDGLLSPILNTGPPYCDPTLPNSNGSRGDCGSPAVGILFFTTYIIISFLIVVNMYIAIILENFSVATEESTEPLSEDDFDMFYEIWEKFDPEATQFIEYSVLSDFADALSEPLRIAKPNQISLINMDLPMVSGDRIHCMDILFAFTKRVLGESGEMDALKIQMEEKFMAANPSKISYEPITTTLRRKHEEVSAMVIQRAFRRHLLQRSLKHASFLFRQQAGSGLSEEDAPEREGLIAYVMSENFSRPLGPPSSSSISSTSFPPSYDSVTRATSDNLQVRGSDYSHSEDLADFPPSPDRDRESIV
From the text: (§1) Using whole-cell voltage clamp recording techniques, currents were elicited by a 50-ms depolarizing potential of −10 mV from a holding potential of −100 mV every 5 s. […] The time constants for these inhibitions were 34.01 ± 6.81 and 34.24 ± 8.13 s, respectively (Figure 1a,d). […] Dose-response curves for NaV1 subtypes tested are summarized in Figure 1e and consist of at least three data points for each concentration.
All the voltage gated sodium channels subtypes (hNaV1.3, rNaV1.4, hNaV1.5 and hNaV1.7), along with β1 subunit to increase the current density and green fluorescent protein to serve as the report protein, were individually transiently transfected into HEK 293 cells using the lipofectamine 2000 (Invitrogen, Carlsbad, CA, USA) according to its manufacturer’s instructions. […] At 36–72 h after transfection, cells with green fluorescence were selected for whole-cell patch-clamp recording at room temperature. […]
Sodium currents were recorded on experimental cells using whole-cell patch-clamp techniques at room temperature (20–25 °C). […] Experimental data were acquired and analyzed using the programs Clampfit 10.0 (Axon Instruments, Irvine, CA, USA) and Sigmaplot 90 (Sigma, St. Louis, MO, USA). […]
Data were analyzed using the Clampfit (Molecular Devices, Irvine, CA, USA) and Sigmaplot 10.0 (Sigma, St. Louis, MO, USA) software programs. […]

[3] = biological target: T3, rNaV1.4 (Rattus norvegicus, UniProt P15390); assay: Whole-cell patch-clamp inhibition of rNaV1.4 in HEK 293 cells; conditions: HEK 293 cells with β1 subunit, 50-ms depolarization to −10 mV from −100 mV every 5 s, Hill fit, mean ± S.E., room temperature
T3 construct: expressed in transfected cells; host or cells: HEK 293 cells, transient transfection
T3 sequence (P15390 whole entry): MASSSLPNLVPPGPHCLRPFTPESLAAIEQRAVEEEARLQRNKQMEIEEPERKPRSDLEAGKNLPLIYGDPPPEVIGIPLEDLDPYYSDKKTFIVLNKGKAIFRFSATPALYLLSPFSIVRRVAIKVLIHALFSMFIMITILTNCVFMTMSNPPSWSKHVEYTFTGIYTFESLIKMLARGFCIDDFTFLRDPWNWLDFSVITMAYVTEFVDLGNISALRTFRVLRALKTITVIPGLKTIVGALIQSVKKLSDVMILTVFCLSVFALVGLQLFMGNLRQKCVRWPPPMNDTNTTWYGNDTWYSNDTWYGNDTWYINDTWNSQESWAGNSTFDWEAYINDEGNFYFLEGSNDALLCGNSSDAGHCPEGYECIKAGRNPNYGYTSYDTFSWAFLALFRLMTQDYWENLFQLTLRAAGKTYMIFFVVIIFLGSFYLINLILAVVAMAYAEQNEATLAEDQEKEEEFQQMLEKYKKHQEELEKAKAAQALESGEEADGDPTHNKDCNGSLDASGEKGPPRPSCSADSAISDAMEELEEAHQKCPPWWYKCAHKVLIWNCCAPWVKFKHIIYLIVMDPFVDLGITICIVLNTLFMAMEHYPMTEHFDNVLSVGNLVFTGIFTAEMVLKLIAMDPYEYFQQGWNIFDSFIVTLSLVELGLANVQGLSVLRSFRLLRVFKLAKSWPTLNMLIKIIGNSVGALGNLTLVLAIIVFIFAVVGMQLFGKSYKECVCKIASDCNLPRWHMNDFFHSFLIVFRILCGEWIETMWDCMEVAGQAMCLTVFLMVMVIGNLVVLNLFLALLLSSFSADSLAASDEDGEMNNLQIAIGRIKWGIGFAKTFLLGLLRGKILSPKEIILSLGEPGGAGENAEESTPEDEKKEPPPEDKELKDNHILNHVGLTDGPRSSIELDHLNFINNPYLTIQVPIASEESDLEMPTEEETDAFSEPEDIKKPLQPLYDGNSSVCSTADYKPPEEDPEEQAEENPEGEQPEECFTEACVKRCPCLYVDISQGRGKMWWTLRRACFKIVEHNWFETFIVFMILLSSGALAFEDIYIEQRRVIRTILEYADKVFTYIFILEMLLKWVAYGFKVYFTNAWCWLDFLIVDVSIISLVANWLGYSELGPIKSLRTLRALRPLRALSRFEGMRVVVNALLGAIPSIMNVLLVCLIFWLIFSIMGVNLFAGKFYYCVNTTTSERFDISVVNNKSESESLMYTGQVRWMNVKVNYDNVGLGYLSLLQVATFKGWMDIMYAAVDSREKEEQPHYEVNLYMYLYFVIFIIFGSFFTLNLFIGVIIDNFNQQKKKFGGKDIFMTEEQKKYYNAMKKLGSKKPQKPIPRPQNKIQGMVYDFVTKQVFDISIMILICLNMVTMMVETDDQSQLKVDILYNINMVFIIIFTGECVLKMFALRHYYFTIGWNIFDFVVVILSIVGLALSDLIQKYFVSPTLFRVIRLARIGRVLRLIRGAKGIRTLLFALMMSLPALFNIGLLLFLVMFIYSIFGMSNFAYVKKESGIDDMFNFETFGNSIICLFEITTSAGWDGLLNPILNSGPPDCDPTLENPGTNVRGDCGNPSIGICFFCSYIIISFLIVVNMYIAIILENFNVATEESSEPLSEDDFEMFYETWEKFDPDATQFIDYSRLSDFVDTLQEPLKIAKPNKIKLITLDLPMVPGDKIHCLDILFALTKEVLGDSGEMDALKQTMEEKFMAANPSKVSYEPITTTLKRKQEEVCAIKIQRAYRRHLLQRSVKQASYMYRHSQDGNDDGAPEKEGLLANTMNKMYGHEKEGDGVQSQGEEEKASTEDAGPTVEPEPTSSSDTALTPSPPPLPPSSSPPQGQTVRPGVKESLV
T3 sequence (Q07699 19-218, further chain): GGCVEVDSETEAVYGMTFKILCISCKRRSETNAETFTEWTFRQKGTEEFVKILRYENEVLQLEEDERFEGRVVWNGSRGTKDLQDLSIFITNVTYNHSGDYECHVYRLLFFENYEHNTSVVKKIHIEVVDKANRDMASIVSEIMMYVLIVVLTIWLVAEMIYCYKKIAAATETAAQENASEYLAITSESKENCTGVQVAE
From the text: as §1
After purification, we characterized the interaction of each mutant toxin with NaV1.4. Under whole-cell patch clamp configuration, rNaV1.4 current was elicited by a 50-ms depolarizing potential of −10 mV from a holding potential of −100 mV every 5 s.
All the voltage gated sodium channels subtypes (hNaV1.3, rNaV1.4, hNaV1.5 and hNaV1.7), along with β1 subunit to increase the current density and green fluorescent protein to serve as the report protein, were individually transiently transfected into HEK 293 cells using the lipofectamine 2000 (Invitrogen, Carlsbad, CA, USA) according to its manufacturer’s instructions. HEK293 cells were cultured under standard cell culture condition (5% CO2; 37 °C) in DMEM supplemented with 10% FBS. At 36–72 h after transfection, cells with green fluorescence were selected for whole-cell patch-clamp recording at room temperature. The pipette solution contained (in mM): 140 CsF, 10 NaCl, 10 HEPES and 1 EGFA, pH7.3. The bathing solution contained (in mM): 140 NaCl, 10 HEPES, 3 KCl, 1 MgCl2 and 1 CaCl2, pH7.3.
Sodium currents were recorded on experimental cells using whole-cell patch-clamp techniques at room temperature (20–25 °C). Patch pipettes with DC resistance of 2~3 MΩ were fabricated from borosilicate glass tubing (VWR micropipettes; VWR Co., West Chester, PA, USA) using a two-stage vertical microelectrode puller (PC-10; Narishige, Tokyo, Japan) and fire-polished by a heater (Narishige, Tokyo, Japan). Whole-cell patch-clamp recordings were performed by an Axon 700B patch-clamp amplifier (Axon Instruments, Irvine, CA, USA). The P/4 protocol was used to subtract linear capacitive and leakage currents. Experimental data were acquired and analyzed using the programs Clampfit 10.0 (Axon Instruments, Irvine, CA, USA) and Sigmaplot 90 (Sigma, St. Louis, MO, USA).
Before use, the solution was diluted to the concentration of interest with fresh bathing solution. Toxin was introduced into the recording chamber (volume of 300 μL) and mixed by repeatedly pipetting 30 μL to achieve the demanded final concentration. The mixing process typically took ~5 s.
Data were analyzed using the Clampfit (Molecular Devices, Irvine, CA, USA) and Sigmaplot 10.0 (Sigma, St. Louis, MO, USA) software programs. All data points are shown as mean ± S.E. n is the number of the separated experimental cells. […] The Hill coefficient was set to 1 except where indicated. The box plots were generated at http://boxplot.tyerslab.com. In the box plots, center lines show the medians; box limits indicate the 25th and 75th percentiles as determined by R software; whiskers extend 1.5 times the interquartile range from the 25th and 75th percentiles, outliers are represented by dots. Time courses were fitted by using single exponential decay function.

[4] = biological target: T4, hNaV1.7 (Homo sapiens, UniProt Q15858); assay: Whole-cell patch-clamp inhibition of hNaV1.7 in HEK 293 cells; conditions: 100 nM toxin, approximate
T4 construct: expressed in transfected cells; host or cells: HEK 293 cells, transient transfection

[5] = read-out: IC50 on rNaV1.4 (alanine mutants)

| SMILES | IC50 [3, 5] [nM] | further results |
| --- | --- | --- |
| CC[C@H](C)[C@H](NC(=O)[C@@H](NC(=O)[C@H](CCCCN)NC(=O)[C@H](CCCNC(=N)N)NC(=O)[C@@H]1CSSC[C@@H]2NC(=O)[C@H](C)NC(=O)[C@H](CCCNC(=N)N)NC(=O)[C@H](CCCCN)NC(=O)[C@H](CO)NC(=O)[C@H](CC(=O)O)NC(=O)[C@@H]3CSSC[C@H](NC(=O)[C@H](CCCNC(=N)N)NC(=O)[C@H](CC(C)C)NC(=O)CNC(=O)[C@H](CCC(=O)O)NC(=O)[C@H](CSSC[C@H](NC(=O)[C@@H](N)Cc4ccc(O)cc4)C(=O)N[C@@H](CCC(N)=O)C(=O)N[C@@H](CCCCN)C(=O)N[C@@H](Cc4c[nH]c5ccccc45)C(=O)N[C@@H](CCSC)C(=O)N[C@@H](Cc4c[nH]c5ccccc45)C(=O)N[C@@H]([C@@H](C)O)C(=O)N3)NC2=O)C(=O)N[C@@H](CCCCN)C(=O)N[C@@H](CC(C)C)C(=O)N[C@@H](Cc2c[nH]c3ccccc23)C(=O)N1)[C@@H](C)CC)C(N)=O [JZTX-V] | – | inhibition of hNaV1.3 inward current (Figure 1c) [1]: ~35%; decrease of hNaV1.5 activation (peak current) ([2]; 500 nM toxin, n = 8, −10 mV from −100 mV): 43% ± 6.5%; IC50 ([2]; HEK 293 cells with β1 subunit, 50-ms depolarization to −10 mV from −100 mV every 5 s, Hill fit, mean ± S.E., three to six cells, room temperature): 2700 ± 779 nM; IC50 ([3]; three to six cells, read-out: IC50 on rNaV1.4): 5.12 ± 0.87 nM; inhibition of hNaV1.7 inward current (Figure 1b) [4]: approximately 45% |
| CC[C@H](C)[C@H](NC(=O)[C@@H](NC(=O)[C@H](CCCCN)NC(=O)[C@H](CCCNC(=N)N)NC(=O)[C@@H]1CSSC[C@@H]2NC(=O)[C@H](C)NC(=O)[C@H](CCCNC(=N)N)NC(=O)[C@H](CCCCN)NC(=O)[C@H](CO)NC(=O)[C@H](CC(=O)O)NC(=O)[C@@H]3CSSC[C@H](NC(=O)[C@H](CCCNC(=N)N)NC(=O)[C@H](CC(C)C)NC(=O)CNC(=O)[C@H](CCC(=O)O)NC(=O)[C@H](CSSC[C@H](NC(=O)[C@@H](N)Cc4ccc(O)cc4)C(=O)N[C@@H](CCC(N)=O)C(=O)N[C@@H](CCCCN)C(=O)N[C@@H](Cc4c[nH]c5ccccc45)C(=O)N[C@@H](CCSC)C(=O)N[C@@H](Cc4c[nH]c5ccccc45)C(=O)N[C@@H]([C@@H](C)O)C(=O)N3)NC2=O)C(=O)N[C@@H](C)C(=O)N[C@@H](CC(C)C)C(=O)N[C@@H](Cc2c[nH]c3ccccc23)C(=O)N1)[C@@H](C)CC)C(N)=O [K22A] | 659 ± 11 | – |
| CC[C@H](C)[C@H](NC(=O)[C@@H](NC(=O)[C@H](CCCCN)NC(=O)[C@H](CCCNC(=N)N)NC(=O)[C@@H]1CSSC[C@@H]2NC(=O)[C@H](C)NC(=O)[C@H](CCCNC(=N)N)NC(=O)[C@H](CCCCN)NC(=O)[C@H](CO)NC(=O)[C@H](CC(=O)O)NC(=O)[C@@H]3CSSC[C@H](NC(=O)[C@H](C)NC(=O)[C@H](CC(C)C)NC(=O)CNC(=O)[C@H](CCC(=O)O)NC(=O)[C@H](CSSC[C@H](NC(=O)[C@@H](N)Cc4ccc(O)cc4)C(=O)N[C@@H](CCC(N)=O)C(=O)N[C@@H](CCCCN)C(=O)N[C@@H](Cc4c[nH]c5ccccc45)C(=O)N[C@@H](CCSC)C(=O)N[C@@H](Cc4c[nH]c5ccccc45)C(=O)N[C@@H]([C@@H](C)O)C(=O)N3)NC2=O)C(=O)N[C@@H](CCCCN)C(=O)N[C@@H](CC(C)C)C(=O)N[C@@H](Cc2c[nH]c3ccccc23)C(=O)N1)[C@@H](C)CC)C(N)=O [R20A] | 2100 ± 280 | – |
| CC[C@H](C)[C@H](NC(=O)[C@@H](NC(=O)[C@H](CCCCN)NC(=O)[C@H](CCCNC(=N)N)NC(=O)[C@@H]1CSSC[C@@H]2NC(=O)[C@H](C)NC(=O)[C@H](CCCNC(=N)N)NC(=O)[C@H](CCCCN)NC(=O)[C@H](CO)NC(=O)[C@H](CC(=O)O)NC(=O)[C@@H]3CSSC[C@H](NC(=O)[C@H](CCCNC(=N)N)NC(=O)[C@H](CC(C)C)NC(=O)CNC(=O)[C@H](CCC(=O)O)NC(=O)[C@H](CSSC[C@H](NC(=O)[C@@H](N)Cc4ccc(O)cc4)C(=O)N[C@@H](CCC(N)=O)C(=O)N[C@@H](CCCCN)C(=O)N[C@@H](C)C(=O)N[C@@H](CCSC)C(=O)N[C@@H](Cc4c[nH]c5ccccc45)C(=O)N[C@@H]([C@@H](C)O)C(=O)N3)NC2=O)C(=O)N[C@@H](CCCCN)C(=O)N[C@@H](CC(C)C)C(=O)N[C@@H](Cc2c[nH]c3ccccc23)C(=O)N1)[C@@H](C)CC)C(N)=O [W5A] | 313 ± 260 | – |
| CC[C@H](C)[C@H](NC(=O)[C@@H](NC(=O)[C@H](CCCCN)NC(=O)[C@H](CCCNC(=N)N)NC(=O)[C@@H]1CSSC[C@@H]2NC(=O)[C@H](C)NC(=O)[C@H](CCCNC(=N)N)NC(=O)[C@H](CCCCN)NC(=O)[C@H](CO)NC(=O)[C@H](CC(=O)O)NC(=O)[C@@H]3CSSC[C@H](NC(=O)[C@H](CCCNC(=N)N)NC(=O)[C@H](CC(C)C)NC(=O)CNC(=O)[C@H](CCC(=O)O)NC(=O)[C@H](CSSC[C@H](NC(=O)[C@@H](N)Cc4ccc(O)cc4)C(=O)N[C@@H](CCC(N)=O)C(=O)N[C@@H](CCCCN)C(=O)N[C@@H](Cc4c[nH]c5ccccc45)C(=O)N[C@@H](CCSC)C(=O)N[C@@H](C)C(=O)N[C@@H]([C@@H](C)O)C(=O)N3)NC2=O)C(=O)N[C@@H](CCCCN)C(=O)N[C@@H](CC(C)C)C(=O)N[C@@H](Cc2c[nH]c3ccccc23)C(=O)N1)[C@@H](C)CC)C(N)=O [W7A] | 1920 ± 310 | – |
| CC[C@H](C)[C@H](NC(=O)[C@@H](NC(=O)[C@H](CCCCN)NC(=O)[C@H](CCCNC(=N)N)NC(=O)[C@@H]1CSSC[C@@H]2NC(=O)[C@H](C)NC(=O)[C@H](CCCNC(=N)N)NC(=O)[C@H](CCCCN)NC(=O)[C@H](CO)NC(=O)[C@H](CC(=O)O)NC(=O)[C@@H]3CSSC[C@H](NC(=O)[C@H](CCCNC(=N)N)NC(=O)[C@H](CC(C)C)NC(=O)CNC(=O)[C@H](CCC(=O)O)NC(=O)[C@H](CSSC[C@H](NC(=O)[C@@H](N)Cc4ccc(O)cc4)C(=O)N[C@@H](CCC(N)=O)C(=O)N[C@@H](CCCCN)C(=O)N[C@@H](Cc4c[nH]c5ccccc45)C(=O)N[C@@H](C)C(=O)N[C@@H](Cc4c[nH]c5ccccc45)C(=O)N[C@@H]([C@@H](C)O)C(=O)N3)NC2=O)C(=O)N[C@@H](CCCCN)C(=O)N[C@@H](CC(C)C)C(=O)N[C@@H](Cc2c[nH]c3ccccc23)C(=O)N1)[C@@H](C)CC)C(N)=O [M6A] | 252 ± 450 | – |
